Results published in patent US8987268B2, “Pyrrolopyridazine JAK3 inhibitors and their use for the treatment of inflammatory and autoimmune diseases” (Bristol-Myers Squibb Company, priority 2011, dated 2015).

Assays:
[1] = molecular target: GST-JAK3 enzyme (Homo sapiens (Human), UniProt P52333); assay: JAK3 Kinase Assay Protocol (Caliper); format: biochemical; settings: JAK3 kinase inhibition; read-out: LLE_JAK3_FB (IC50)
Description: JAK3 Kinase Assay Protocol (Caliper)
(§1) The assay reactions were performed in U-bottom 384-well plates. […] The reaction was initiated by the combination of GST-JAK3 enzyme with substrates and test compounds. The reactions were incubated at room temperature for 3 hours and terminated by adding 60 μl of 35 mM EDTA to each sample. Each reaction mixture was analyzed on the Caliper LabChip 3000 (Caliper, Hopkinton, Mass.) by electrophoretic separation of the fluorescent substrate and phosphorylated product. […] Compounds were dissolved at 10 mM in dimethylsulfoxide (DMSO) and evaluated at eleven concentrations. IC50 values were derived by non-linear regression analysis.

[2] = molecular target: GST-JAK1 enzyme (Homo sapiens (Human), UniProt P23458); assay: JAK1 Kinase Assay Protocol; format: biochemical; settings: JAK1 kinase inhibition; read-out: LLE_JAK1 (IC50)
Description: JAK1 Kinase Assay Protocol
as §1, with “GST-JAK1” for “GST-JAK3”

Sequence of GST-JAK1 enzyme (P23458 whole entry): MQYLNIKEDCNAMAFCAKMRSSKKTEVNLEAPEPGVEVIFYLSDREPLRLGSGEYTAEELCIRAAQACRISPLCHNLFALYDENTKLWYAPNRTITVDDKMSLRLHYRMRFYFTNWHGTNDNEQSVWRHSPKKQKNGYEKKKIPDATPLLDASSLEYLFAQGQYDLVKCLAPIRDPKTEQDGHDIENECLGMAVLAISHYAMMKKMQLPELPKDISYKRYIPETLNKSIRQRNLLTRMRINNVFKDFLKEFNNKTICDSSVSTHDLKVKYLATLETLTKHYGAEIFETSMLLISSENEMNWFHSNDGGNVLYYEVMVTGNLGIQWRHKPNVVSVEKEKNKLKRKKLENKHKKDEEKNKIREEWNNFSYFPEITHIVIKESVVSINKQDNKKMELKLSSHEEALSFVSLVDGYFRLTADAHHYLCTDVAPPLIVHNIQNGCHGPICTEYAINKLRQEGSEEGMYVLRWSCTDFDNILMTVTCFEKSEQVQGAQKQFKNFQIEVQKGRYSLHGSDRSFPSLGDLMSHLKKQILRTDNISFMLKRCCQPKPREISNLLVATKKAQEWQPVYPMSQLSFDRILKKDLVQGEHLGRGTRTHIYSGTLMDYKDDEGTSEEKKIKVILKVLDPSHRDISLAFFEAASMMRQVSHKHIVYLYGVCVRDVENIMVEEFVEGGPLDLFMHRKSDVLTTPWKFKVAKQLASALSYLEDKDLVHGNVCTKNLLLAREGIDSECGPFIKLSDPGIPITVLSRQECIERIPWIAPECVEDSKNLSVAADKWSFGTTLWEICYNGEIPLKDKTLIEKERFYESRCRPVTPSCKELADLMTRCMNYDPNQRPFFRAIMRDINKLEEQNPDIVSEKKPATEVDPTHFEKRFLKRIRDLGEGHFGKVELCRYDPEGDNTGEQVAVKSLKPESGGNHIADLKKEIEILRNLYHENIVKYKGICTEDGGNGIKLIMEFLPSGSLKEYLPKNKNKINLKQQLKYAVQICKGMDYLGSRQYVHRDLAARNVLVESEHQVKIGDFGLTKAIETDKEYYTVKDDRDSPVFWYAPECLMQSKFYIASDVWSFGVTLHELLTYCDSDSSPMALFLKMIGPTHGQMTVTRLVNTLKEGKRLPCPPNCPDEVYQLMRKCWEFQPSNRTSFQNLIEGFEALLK
Sequence of GST-JAK3 enzyme (P52333 whole entry): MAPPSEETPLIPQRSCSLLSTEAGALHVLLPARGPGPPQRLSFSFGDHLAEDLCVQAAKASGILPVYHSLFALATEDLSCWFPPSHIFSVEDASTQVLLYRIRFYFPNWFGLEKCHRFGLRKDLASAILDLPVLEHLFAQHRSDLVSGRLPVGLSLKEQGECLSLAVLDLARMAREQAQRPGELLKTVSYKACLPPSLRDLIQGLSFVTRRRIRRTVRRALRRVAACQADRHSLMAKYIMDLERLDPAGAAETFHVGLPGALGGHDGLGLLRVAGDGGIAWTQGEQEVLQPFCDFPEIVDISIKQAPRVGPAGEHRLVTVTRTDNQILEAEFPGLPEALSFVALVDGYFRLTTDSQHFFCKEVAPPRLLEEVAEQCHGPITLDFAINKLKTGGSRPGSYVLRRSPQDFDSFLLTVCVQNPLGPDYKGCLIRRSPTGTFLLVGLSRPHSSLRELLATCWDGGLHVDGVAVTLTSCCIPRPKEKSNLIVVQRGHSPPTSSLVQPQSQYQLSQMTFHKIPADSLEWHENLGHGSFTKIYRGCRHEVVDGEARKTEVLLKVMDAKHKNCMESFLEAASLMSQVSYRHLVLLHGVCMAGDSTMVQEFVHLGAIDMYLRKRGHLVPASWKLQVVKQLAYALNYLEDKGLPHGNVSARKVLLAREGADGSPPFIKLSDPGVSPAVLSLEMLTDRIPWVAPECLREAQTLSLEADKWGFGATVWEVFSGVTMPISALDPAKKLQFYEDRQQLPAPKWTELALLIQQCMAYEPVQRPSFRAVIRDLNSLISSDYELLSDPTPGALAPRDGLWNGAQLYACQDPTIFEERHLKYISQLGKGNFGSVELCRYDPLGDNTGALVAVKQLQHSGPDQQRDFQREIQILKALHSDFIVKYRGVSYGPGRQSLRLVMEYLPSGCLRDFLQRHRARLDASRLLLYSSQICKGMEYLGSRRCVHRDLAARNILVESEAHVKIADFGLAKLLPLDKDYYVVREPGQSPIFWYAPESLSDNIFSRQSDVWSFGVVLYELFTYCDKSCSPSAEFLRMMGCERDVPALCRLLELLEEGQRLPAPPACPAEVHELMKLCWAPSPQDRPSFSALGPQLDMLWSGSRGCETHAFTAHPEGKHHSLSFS

IC50 [1] [nM] | IC50 [2] [nM] | SMILES
0.9 | 4.4 | COc1ccc(-c2cc3c(N[C@@H]4CCN(C(=O)C(N)=O)CC4(C)C)c(C(N)=O)cnn3c2)cn1 [Example 55, (R)-4-(1-(2-amino-2-oxoacetyl)-3,3-dimethylpiperidin-4-ylamino)-6-(6-methoxypyridin-3-yl)pyrrolo[1,2-b]pyridazine-3-carboxamide]
70 | 120 | NC(=O)c1cnn2cc(-c3cncc(F)c3)cc2c1NC1CCOCC1 [Example 29, 6-(5-fluoro-3-pyridinyl)-4-(tetrahydro-2H-pyran-4-ylamino)pyrrolo[1,2-b]pyridazine-3-carboxamide]
1.5 | 1.1 | CC[C@H]1CN(C(=O)C2(C#N)CC2)C[C@H]1Nc1c(C(N)=O)cnn2cc(-c3cn(C)nc3C)cc12 [Example 220, 4-((3S,4S)-1-(1-cyanocyclopropanecarbonyl)-4-ethylpyrrolidin-3-ylamino)-6-(1,3-dimethyl-1H-pyrazol-4-yl)pyrrolo[1,2-b]pyridazine-3-carboxamide]
0.4 | 0.8 | CC[C@H]1CN(c2ccc(C#N)cn2)C[C@H]1Nc1c(C(N)=O)cnn2cc(-c3ccc(=O)n(C)c3)cc12 [Example 173, 4-((3S,4S)-1-(5-cyanopyridin-2-yl)-4-ethylpyrrolidin-3-ylamino)-6-(1-methyl-6-oxo-1,6-dihydropyridin-3-yl)pyrrolo[1,2-b]pyridazine-3-carboxamide]
7.6 | 21.6 | NC(=O)c1cnn2cc(-c3ccc(F)cc3)cc2c1NC1CCOCC1 [Example 28, 6-(4-fluorophenyl)-4-(tetrahydro-2H-pyran-4-ylamino)pyrrolo[1,2-b]pyridazine-3-carboxamide]
0.2 | 0.8 | CC[C@H]1CN(c2ncc(C#N)s2)C[C@H]1Nc1c(C(N)=O)cnn2cc(-c3cnn(CC(C)C)c3)cc12 [Example 183]
0.2 | 0.7 | CC1(C)CN(c2ccc(C#N)cn2)CC[C@H]1Nc1c(C(N)=O)cnn2cc(N3CC[C@@H](O)C3=O)cc12 [Example 105, 4-((R)-1-(5-cyanopyridin-2-yl)-3,3-dimethylpiperidin-4-ylamino)-6-((R)-3-hydroxy-2-oxopyrrolidin-1-yl)pyrrolo[1,2-b]pyridazine-3-carboxamide]
8.9 | 8 | COc1ccc(-c2cc3c(N[C@@H]4CN(S(C)(=O)=O)C[C@@H]4OC)c(C(N)=O)cnn3c2)cn1 [Example 315, 4-((3R,4S)-4-methoxy-1-(methylsulfonyl)pyrrolidin-3-ylamino)-6-(6-methoxypyridin-3-yl)pyrrolo[1,2-b]pyridazine-3-carboxamide]
1.4 | 2.4 | CCCC(=O)O[C@H]1CCN(c2cc3c(N[C@@H]4CCN(c5ncc(C#N)cn5)CC4(C)C)c(C(N)=O)cnn3c2)C1=O [Example 122, (S)-1-(3-carbamoyl-4-(((R)-1-(5-cyanopyrimidin-2-yl)-3,3-dimethylpiperidin-4-yl)amino)pyrrolo[1,2-b]pyridazin-6-yl)-2-oxopyrrolidin-3-yl butyrate]
0.4 | 0.3 | C[C@@H]1[C@H]2CN(C(=O)CO)C[C@H]2C[C@H]1Nc1c(C(N)=O)cnn2cc(-c3ccc(C(=O)NC4CC4)cc3)cc12 [Example 70, 6-(4-(cyclopropylcarbamoyl)phenyl)-4-((3aS,4R,5R,6aS)-2-(2-hydroxyacetyl)-4-methyloctahydrocyclopenta[c]pyrrol-5-ylamino)pyrrolo[1,2-b]pyridazine-3-carboxamide]
40 | 110 | N#Cc1ccccc1-c1cc2c(NC3CCOCC3)c(C(N)=O)cnn2c1 [Example 33, 6-(2-cyanophenyl)-4-(tetrahydro-2H-pyran-4-ylamino)pyrrolo[1,2-b]pyridazine-3-carboxamide]
5.6 | 7.6 | CC[C@@H]1CN(C(=O)[C@@H](O)CC)CC[C@H]1Nc1c(C(N)=O)cnn2cc(-c3cnn(C)c3)cc12 [Example 127, 4-(((3R,4R)-3-ethyl-1-((S)-2-hydroxybutanoyl)piperidin-4-yl)amino)-6-(1-methyl-1H-pyrazol-4-yl)pyrrolo[1,2-b]pyridazine-3-carboxamide]
7.5 | 4.7 | CNC(=O)c1ccc(-c2cc3c(N[C@@H]4CN(C(=O)OC)C[C@@H]4C)c(C(N)=O)cnn3c2)cn1 [Example 213, (3S,4S)-methyl 3-((3-carbamoyl-6-(6-(methylcarbamoyl)pyridin-3-yl)pyrrolo[1,2-b]pyridazin-4-yl)amino)-4-methylpyrrolidine-1-carboxylate]
0.3 | 0.8 | CC[C@H]1CN(c2ncc(C#N)s2)C[C@H]1Nc1c(C(N)=O)cnn2cc(-c3cnn(C)c3)cc12 [Example 182, 4-((3S,4S)-1-(5-cyanothiazol-2-yl)-4-ethylpyrrolin-3-ylamino)-6-(1-methyl-1H-pyrazol-4-yl)pyrrolo[1,2-b]pyridazine-3-carboxamide]
0.3 | 1.2 | CC[C@H]1CN(C(=O)C2(C#N)CCC2)C[C@H]1Nc1c(C(N)=O)cnn2cc(-c3ccnc(Cl)c3)cc12 [Example 257, 6-(2-chloropyridin-4-yl)-4-((3S,4S)-1-(1-cyanocyclobutanecarbonyl)-4-ethylpyrrolidin-3-ylamino)pyrrolo[1,2-b]pyridazine-3-carboxamide]
1.8 | 0.8 | CC(=O)N1CCN(c2cc3c(N[C@@H]4C[C@@H]5CN(S(C)(=O)=O)C[C@@H]5[C@H]4C)c(C(N)=O)cnn3c2)C1=O [Example 60, 6-(3-acetyl-2-oxo-1-imidazolidinyl)-4-(((3aS,4R,5R,6aS)-4-methyl-2-(methylsulfonyl)octahydrocyclopenta[c]pyrrol-5-yl)amino)pyrrolo[1,2-b]pyridazine-3-carboxamide]
110 | 190 | Cn1nccc1-c1cc2c(NC3CCOCC3)c(C(N)=O)cnn2c1 [Example 30, 6-(1-methyl-1H-pyrazol-5-yl)-4-(tetrahydro-2H-pyran-4-ylamino)pyrrolo[1,2-b]pyridazine-3-carboxamide]
8.6 | 4.3 | CCNC(=O)c1ccc(-c2cc3c(N[C@@H]4CN(C(=O)C(C)(C)C#N)C[C@@H]4CC)c(C(N)=O)cnn3c2)cn1 [Example 252, 4-((3S,4S)-1-(2-cyano-2-methylpropanoyl)-4-ethylpyrrolidin-3-ylamino)-6-(6-(ethylcarbamoyl)pyridin-3-yl)pyrrolo[1,2-b]pyridazine-3-carboxamide]
1.5 | 0.5 | CNC(=O)c1cccc(-c2cc3c(N[C@@H]4CN(C(=O)C5(C#N)CC5)C[C@@H]4OC)c(C(N)=O)cnn3c2)c1 [Example 303, 4-(((3R,4S)-1-(1-cyanocyclopropanecarbonyl)-4-methoxypyrrolidin-3-yl)amino)-6-(3-(methylcarbamoyl)phenyl)pyrrolo[1,2-b]pyridazine-3-carboxamide]
1 | 3.6 | C[C@@H]1[C@H]2CN(C(=O)C(C)(C)O)C[C@H]2C[C@H]1Nc1c(C(N)=O)cnn2cc(-c3cnc(N)nc3)cc12 [Example 62, 6-(2-amino-5-pyrimidinyl)-4-(((3aS,4R,5R,6aS)-2-(2-hydroxy-2-methylpropanoyl)-4-methyloctahydrocyclopenta[c]pyrrol-5-yl)amino)pyrrolo[1,2-b]pyridazine-3-carboxamide]
